Laboratory results from patent publication US11433071B2, “Heterocyclylamines as PI3K inhibitors” (Incyte Corporation, priority 2011, dated 2022).

Target: PI3Kδ (p110δ/p85α) (Homo sapiens (Human), UniProt O00329)
Test: PI3Kδ scintillation proximity assay (Example A3)
Assay type: biochemical
Details: assay not given
Procedure: [γ-^33P]ATP (10 mCi/mL) was purchased from Perkin-Elmer (Waltham, Mass.). […] PI3Kδ (p110δ/p85α) was purchased from Millipore (Bedford, Mass.). ATP, MgCl2, DTT, EDTA, MOPS and CHAPS were purchased from Sigma-Aldrich (St. Louis, Mo.). Wheat Germ Agglutinin (WGA) YSi SPA Scintillation Beads was purchased from GE healthcare life sciences (Piscataway, N.J.).
The kinase reaction was conducted in polystyrene 384-well matrix white plate from Thermo Fisher Scientific in a final volume of 25 μL. Inhibitors were first diluted serially in DMSO and added to the plate wells before the addition of other reaction components. The final concentration of DMSO in the assay was 0.5%. The PI3K assays were carried out at room temperature in 20 mM MOPS, pH 6.7, 10 mM MgCl2, 5 mM DTT and CHAPS 0.03%. Reactions were initiated by the addition of ATP, the final reaction mixture consisted of 20 μM PIP2, 20 μM ATP, 0.2 μCi [γ-^33P] ATP, 4 nM PI3Kδ. […] 25 mM EDTA, 400 µM ATP. The final concentration of SPA beads was 1.0 mg/mL. After the plate sealing, plates were shaken overnight at room temperature and centrifuged at 1800 rpm for 10 minutes, the radioactivity of the product was determined by scintillation counting on Topcount (Perkin-Elmer). IC50 determination was performed by fitting the curve of percent control activity versus the log of the inhibitor concentration using the GraphPad Prism 3.0 software.

PI3Kδ (p110δ/p85α), sequence (O00329 whole entry): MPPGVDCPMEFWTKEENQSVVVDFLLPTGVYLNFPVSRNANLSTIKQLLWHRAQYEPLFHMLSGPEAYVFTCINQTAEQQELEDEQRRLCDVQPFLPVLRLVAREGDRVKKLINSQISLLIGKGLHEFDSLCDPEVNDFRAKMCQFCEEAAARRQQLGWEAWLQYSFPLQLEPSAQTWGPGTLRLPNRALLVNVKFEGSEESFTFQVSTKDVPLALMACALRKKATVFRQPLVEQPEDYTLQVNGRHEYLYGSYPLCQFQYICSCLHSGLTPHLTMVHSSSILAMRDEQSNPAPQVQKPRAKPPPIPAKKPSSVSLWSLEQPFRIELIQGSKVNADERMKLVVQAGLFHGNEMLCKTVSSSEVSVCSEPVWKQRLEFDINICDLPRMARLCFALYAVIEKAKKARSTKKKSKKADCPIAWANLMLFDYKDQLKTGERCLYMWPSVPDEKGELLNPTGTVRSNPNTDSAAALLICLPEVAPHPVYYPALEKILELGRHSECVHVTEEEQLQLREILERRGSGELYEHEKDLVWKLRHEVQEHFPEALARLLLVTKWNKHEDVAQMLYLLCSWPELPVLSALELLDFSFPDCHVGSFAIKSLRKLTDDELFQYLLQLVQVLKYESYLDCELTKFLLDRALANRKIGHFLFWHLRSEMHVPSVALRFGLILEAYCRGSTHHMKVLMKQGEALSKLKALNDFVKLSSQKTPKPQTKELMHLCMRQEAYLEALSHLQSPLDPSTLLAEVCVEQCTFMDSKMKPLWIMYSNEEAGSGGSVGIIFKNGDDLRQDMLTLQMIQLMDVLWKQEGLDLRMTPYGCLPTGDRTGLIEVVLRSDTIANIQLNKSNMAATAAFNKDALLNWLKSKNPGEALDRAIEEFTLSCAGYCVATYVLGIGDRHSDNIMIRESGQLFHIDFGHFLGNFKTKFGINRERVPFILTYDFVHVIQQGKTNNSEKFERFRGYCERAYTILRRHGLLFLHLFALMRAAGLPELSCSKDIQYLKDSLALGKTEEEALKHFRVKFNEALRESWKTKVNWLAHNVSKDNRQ
PI3Kδ (p110δ/p85α), sequence (P27986 whole entry partner): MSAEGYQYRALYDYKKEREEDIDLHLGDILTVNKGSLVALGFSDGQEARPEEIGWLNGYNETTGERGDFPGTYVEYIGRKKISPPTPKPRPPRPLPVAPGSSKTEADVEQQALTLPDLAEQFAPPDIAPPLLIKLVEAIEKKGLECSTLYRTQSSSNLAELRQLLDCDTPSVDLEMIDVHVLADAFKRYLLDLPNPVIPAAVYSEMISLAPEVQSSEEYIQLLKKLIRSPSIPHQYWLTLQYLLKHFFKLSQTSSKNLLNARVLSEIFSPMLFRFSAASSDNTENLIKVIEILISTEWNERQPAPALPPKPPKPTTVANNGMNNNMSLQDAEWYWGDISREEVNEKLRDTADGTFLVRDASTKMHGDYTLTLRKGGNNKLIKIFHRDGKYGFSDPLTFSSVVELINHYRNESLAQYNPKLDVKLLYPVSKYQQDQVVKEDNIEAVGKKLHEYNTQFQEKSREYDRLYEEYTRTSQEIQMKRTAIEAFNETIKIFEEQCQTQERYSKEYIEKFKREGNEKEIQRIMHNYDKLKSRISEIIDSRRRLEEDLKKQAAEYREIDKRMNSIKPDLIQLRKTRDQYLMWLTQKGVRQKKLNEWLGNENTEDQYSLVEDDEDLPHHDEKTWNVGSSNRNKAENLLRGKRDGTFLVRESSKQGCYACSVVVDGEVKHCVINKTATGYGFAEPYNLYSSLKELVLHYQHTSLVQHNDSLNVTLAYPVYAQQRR

CCOc1c(C(C)n2nc(C)c3c(N)ncnc32)cc(Cl)c(F)c1C1CNC(=O)O1 (stereo not shown) [Example 357, 5-{3-[1-(4-amino-3-methyl-1H-pyrazolo[3,4-d]pyrimidin-1-yl)ethyl]-5-chloro-2-ethoxy-6-fluorophenyl}-1,3-oxazolidin-2-one]
relative activity among the four separated stereoisomers (peaks 1-4): most active enantiomer
